According to paper PMC12563652 (International Journal of Molecular Sciences, 2025):

Legend:
3T3-L1 adipocytes [1] = assay: Steatosis, HCS LipidTOX imaging in 3T3-L1 adipocytes; type: cell-based, mouse
Protocol: (§1) The 3T3-L1 mouse embryonic fibroblast cell line (ATCC CRL-11605) was cultured according to the standard protocol in Dulbecco’s Modified Eagle Medium (DMEM) supplemented with 10% bovine calf serum, 100 µg/mL streptomycin, and 100 IU/mL penicillin, at 37 °C in a humidified atmosphere containing 5% CO2. Cells were seeded at a density of 10,000 cells/well in collagen type I–coated (10 µg/mL) 96-well plates and allowed to attach for 24 h. Differentiation was initiated by replacing the medium with induction medium composed of DMEM, 0.5 mM 3-isobutyl-1-methylxanthine (IBMX), 1 µM dexamethasone, and 10% fetal bovine serum (FBS). After 48 h (differentiation day 2), the medium was replaced with DMEM supplemented with 10% FBS and 10 µg/mL human recombinant insulin. After an additional 24 h, the medium was replaced with DMEM supplemented with 10% bovine calf serum, 100 µg/mL streptomycin, and 100 IU/mL penicillin. The medium was refreshed every 24 h for 10 consecutive days to allow full differentiation into adipocytes.
(§2) Lipid accumulation and phospholipidosis were evaluated using the HCS LipidTOX Phospholipidosis and Steatosis Detection Kit (Thermo Fisher Scientific). Cells were cultured in black, clear-bottom 96-well plates and treated as described. Next, cells were fixed with 4% paraformaldehyde (15 min), washed with PBS, and stained with LipidTOX Green Neutral Lipid Stain (for steatosis) and LipidTOX Red Phospholipidosis Detection Reagent, prepared according to the manufacturer’s instructions. Nuclei were counterstained with Hoechst 33342 (2 µg/mL). Image acquisition and quantitative analysis were performed using High Content Screening (HCS) technology on the ImageXpress XLS system (Molecular Devices). Lipid droplet and phospholipid content were quantified using automated image analysis pipelines.

3T3-L1 adipocytes [2] = assay: Phospholipidosis, HCS LipidTOX imaging in 3T3-L1 adipocytes; type: cell-based, mouse
Protocol: as §1, §2

α2A-adrenoceptor = biological target: T1, α2A-adrenoceptor (Homo sapiens, UniProt P08913); assay: α2A-adrenoceptor intrinsic activity, agonist mode (Tango bla reporter assay); type: cell-based; settings: read-out: α2A Ago Emax, receptor activation relative to the full agonist control
T1 sequence (P08913 1-465): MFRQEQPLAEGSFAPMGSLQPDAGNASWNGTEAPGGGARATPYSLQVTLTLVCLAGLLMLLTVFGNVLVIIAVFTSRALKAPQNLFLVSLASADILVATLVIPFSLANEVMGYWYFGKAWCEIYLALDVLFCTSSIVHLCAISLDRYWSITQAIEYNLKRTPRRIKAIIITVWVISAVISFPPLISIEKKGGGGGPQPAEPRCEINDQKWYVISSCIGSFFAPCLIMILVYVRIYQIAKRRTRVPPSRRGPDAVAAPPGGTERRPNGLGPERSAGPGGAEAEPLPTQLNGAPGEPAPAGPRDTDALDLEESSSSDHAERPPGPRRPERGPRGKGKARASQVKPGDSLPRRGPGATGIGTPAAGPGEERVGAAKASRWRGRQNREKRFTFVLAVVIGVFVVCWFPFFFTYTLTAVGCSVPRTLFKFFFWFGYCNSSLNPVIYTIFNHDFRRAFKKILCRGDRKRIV
Protocol: Intrinsic α2A-adrenoceptor activity was assessed using Tango assay technology, which utilizes a mammalian-optimized beta-lactamase (bla) reporter gene in conjunction with a FRET-enabled substrate to provide reliable and sensitive detection in cells. The intrinsic activity test was conducted based on the guidelines provided by the maker of the test kit (Invitrogen, Life Technologies, Carlsbad, CA, USA). […] To perform the agonist assay, 8 μL of a 5-fold higher concentration of agonist in assay medium was added to the cells. […] The agonist and antagonist plates were then incubated in a humidified incubator at 37 °C and 5% CO2 for 5 h. After incubation, cells were loaded with 8 μL of LiveBLAzer™-FRET B/G substrate mix (CCF4-AM), covered for light protection, and incubated at room temperature for 2 h.

[3] = biological target: T2, 5-HT2C serotoninergic receptor (Homo sapiens, UniProt P28335); assay: 5-HT2C intrinsic activity, agonist mode (AequoScreen calcium mobilization); type: cell-based; settings: n.a. = no activity at 10–5 M
T2 sequence (P28335 33-458): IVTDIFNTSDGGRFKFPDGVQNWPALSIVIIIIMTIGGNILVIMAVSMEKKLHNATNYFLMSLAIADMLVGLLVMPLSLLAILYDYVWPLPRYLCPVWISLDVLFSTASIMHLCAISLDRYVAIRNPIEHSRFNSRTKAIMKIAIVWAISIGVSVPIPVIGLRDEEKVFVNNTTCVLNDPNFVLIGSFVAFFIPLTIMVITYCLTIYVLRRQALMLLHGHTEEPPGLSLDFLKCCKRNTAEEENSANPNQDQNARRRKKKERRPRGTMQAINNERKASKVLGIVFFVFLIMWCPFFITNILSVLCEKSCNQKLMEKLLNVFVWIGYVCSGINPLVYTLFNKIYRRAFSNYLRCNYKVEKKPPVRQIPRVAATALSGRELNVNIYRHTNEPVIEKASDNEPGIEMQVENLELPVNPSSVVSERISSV
Protocol: (§3) The determination of intrinsic activity will be performed in accordance with the manufacturer’s Aequoscreen methodology—Perkin Elmer.
The cell density in the 96-well format was 5000 cells per well. Cell preparation for the assay was performed according to the manufacturer’s instructions for AequoScreen (PerkinElmer, Waltham, MA, USA). […] The cells suspension was applied onto the ligands with the injectors of the POLARstar optima reader (BMG Labtech, Ortenberg, Germany). […] The concentration and dilution series having four replicates were prepared as instructed in the AequoScreen Starter Kit Manual (PerkinElmer, Waltham, MA, USA). The wells received cell injections along with either the standard agonist or the compounds being evaluated, while the POLARstar optima reader documented the emitted light over a duration of 20 s. In the antagonist evaluation, cells were administered (50 μL) into the assay plate alongside antagonist solutions (50 μL).

α2B-adrenoceptor = biological target: T3, α2B-adrenoceptor (Homo sapiens, UniProt P18089); assay: α2B-adrenoceptor intrinsic activity, antagonist mode (AequoScreen); type: cell-based; settings: n.a. = no activity at 10–5 M; read-out: α2B Ant IC50
T3 sequence (P18089 1-450): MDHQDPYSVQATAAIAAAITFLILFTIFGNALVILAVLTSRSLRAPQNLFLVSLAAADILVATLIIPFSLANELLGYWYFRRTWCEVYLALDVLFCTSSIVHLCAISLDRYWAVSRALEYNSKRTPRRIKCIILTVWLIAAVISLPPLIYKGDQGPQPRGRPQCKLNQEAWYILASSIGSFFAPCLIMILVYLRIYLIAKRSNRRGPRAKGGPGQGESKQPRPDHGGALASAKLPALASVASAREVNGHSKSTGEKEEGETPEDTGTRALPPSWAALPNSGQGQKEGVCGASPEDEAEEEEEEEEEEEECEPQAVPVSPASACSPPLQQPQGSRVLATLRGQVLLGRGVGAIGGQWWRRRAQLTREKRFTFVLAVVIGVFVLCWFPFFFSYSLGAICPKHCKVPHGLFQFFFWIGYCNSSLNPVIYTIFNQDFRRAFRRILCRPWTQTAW
Protocol: as §3
(§4) The cell density in the 96-well format was 5000 cells per well. Cell preparation for the assay was performed according to the manufacturer’s instructions for AequoScreen (PerkinElmer, Waltham, MA, USA). […] The cells suspension was applied onto the ligands with the injectors of the POLARstar optima reader (BMG Labtech, Ortenberg, Germany). […] The concentration and dilution series having four replicates were prepared as instructed in the AequoScreen Starter Kit Manual (PerkinElmer, Waltham, MA, USA). The wells received cell injections along with either the standard agonist or the compounds being evaluated, while the POLARstar optima reader documented the emitted light over a duration of 20 s. In the antagonist evaluation, cells were administered (50 μL) into the assay plate alongside antagonist solutions (50 μL). A single concentration of agonist (oxymetazoline) was injected (50 μL, final concentration EC80) into the preincubated (15–20 min) plate with cells and antagonist, and the emitted light was recorded for 20 s.

3T3-L1 cell line = assay: Cell viability assay (PrestoBlue, metabolic function), 3T3-L1; type: cell-based, mouse; settings: 24 h, mean
Protocol: Prior to investigating the biological activity and molecular characteristics of the test compounds in vitro, a comprehensive cytotoxicity screening was performed using HepG2 and 3T3-L1 cell lines. Two complementary assays were applied: one based on the quantification of adenylate kinase release as an indicator of cell membrane damage, and another relying on resazurin reduction to assess cellular metabolic activity. These complementary assays enable sensitive and reliable detection of cytotoxic effects across diverse cell types. This preliminary assessment was carried out to ensure that subsequent functional analyses would not be confounded by nonspecific cytotoxic effects.
Cell viability was measured using PrestoBlue reagent (Thermo Fisher Scientific, Waltham, MA, USA), following the manufacturer’s instructions. After 24 h of compound treatment, PrestoBlue reagent was added to each well at 10% of the remaining medium volume. The plate was incubated at 37 °C for 15 min, and fluorescence was measured using the POLARstar Omega plate reader (excitation 530 nm, emission 580 nm). Results were expressed as a percentage of viable cells relative to the DMSO-treated control.

[4] = biological target: T2, 5-HT2C serotoninergic receptor; assay: 5-HT2C intrinsic activity, antagonist mode (AequoScreen calcium mobilization); type: cell-based; settings: n.a. = no activity at 10–5 M
Protocol: as §3, §4

Structure (SMILES): [H]/N=C(\N)NN=Cc1c(Cl)cncc1Cl [JP-14, (E)-2-((3,5-Dichloropyridin-4-yl)Methylene)Hydrazine-1-Carboximidamide]
- effect on steatosis under TAAR1 blockade (3T3-L1 adipocytes [1]; 10 µM + RTI-7470-44 (40 nM)): abolished
- steatosis (neutral lipid accumulation) (3T3-L1 adipocytes [1]; 10 µM, vs vehicle): statistically significant decrease
- effect on phospholipidosis under TAAR1 blockade (3T3-L1 adipocytes [2]; 10 µM + RTI-7470-44 (40 nM)): reversed
- phospholipidosis (phospholipid accumulation) (3T3-L1 adipocytes [2]; 10 µM, vs vehicle): significantly reduced
- Emax (α2A-adrenoceptor): ~15%
- 5-HT2C Ago EC50 [3]: did not exhibit any measurable agonistic or antagonistic activity
- IC50 (α2B-adrenoceptor): 622 nM
- cellular metabolic function, percentage relative to control (live cells) (3T3-L1 cell line; Table S5, 0.1 μM): 87%
- cellular metabolic function, percentage relative to control (live cells) (3T3-L1 cell line; Table S5, 1 μM): 85%
- cellular metabolic function, percentage relative to control (live cells) (3T3-L1 cell line; Table S5, 10 μM): 82%
- cellular metabolic function, percentage relative to control (live cells) (3T3-L1 cell line; Table S5, 50 μM): 80%
- cellular metabolic function, percentage relative to control (live cells) (3T3-L1 cell line; Table S5, 100 μM): 51%
- 5-HT2C Ant EC50 [4]: did not exhibit any measurable agonistic or antagonistic activity
